SMILES strings stand for the structures. Structures can show the parent of a compound that is named as a salt.

The target in one data set is T1, recombinant human baculovirus-expressed GST-tagged FASN (Homo sapiens, UniProt P49327).
T1 construct: GST
T1 sequence (P49327 whole entry): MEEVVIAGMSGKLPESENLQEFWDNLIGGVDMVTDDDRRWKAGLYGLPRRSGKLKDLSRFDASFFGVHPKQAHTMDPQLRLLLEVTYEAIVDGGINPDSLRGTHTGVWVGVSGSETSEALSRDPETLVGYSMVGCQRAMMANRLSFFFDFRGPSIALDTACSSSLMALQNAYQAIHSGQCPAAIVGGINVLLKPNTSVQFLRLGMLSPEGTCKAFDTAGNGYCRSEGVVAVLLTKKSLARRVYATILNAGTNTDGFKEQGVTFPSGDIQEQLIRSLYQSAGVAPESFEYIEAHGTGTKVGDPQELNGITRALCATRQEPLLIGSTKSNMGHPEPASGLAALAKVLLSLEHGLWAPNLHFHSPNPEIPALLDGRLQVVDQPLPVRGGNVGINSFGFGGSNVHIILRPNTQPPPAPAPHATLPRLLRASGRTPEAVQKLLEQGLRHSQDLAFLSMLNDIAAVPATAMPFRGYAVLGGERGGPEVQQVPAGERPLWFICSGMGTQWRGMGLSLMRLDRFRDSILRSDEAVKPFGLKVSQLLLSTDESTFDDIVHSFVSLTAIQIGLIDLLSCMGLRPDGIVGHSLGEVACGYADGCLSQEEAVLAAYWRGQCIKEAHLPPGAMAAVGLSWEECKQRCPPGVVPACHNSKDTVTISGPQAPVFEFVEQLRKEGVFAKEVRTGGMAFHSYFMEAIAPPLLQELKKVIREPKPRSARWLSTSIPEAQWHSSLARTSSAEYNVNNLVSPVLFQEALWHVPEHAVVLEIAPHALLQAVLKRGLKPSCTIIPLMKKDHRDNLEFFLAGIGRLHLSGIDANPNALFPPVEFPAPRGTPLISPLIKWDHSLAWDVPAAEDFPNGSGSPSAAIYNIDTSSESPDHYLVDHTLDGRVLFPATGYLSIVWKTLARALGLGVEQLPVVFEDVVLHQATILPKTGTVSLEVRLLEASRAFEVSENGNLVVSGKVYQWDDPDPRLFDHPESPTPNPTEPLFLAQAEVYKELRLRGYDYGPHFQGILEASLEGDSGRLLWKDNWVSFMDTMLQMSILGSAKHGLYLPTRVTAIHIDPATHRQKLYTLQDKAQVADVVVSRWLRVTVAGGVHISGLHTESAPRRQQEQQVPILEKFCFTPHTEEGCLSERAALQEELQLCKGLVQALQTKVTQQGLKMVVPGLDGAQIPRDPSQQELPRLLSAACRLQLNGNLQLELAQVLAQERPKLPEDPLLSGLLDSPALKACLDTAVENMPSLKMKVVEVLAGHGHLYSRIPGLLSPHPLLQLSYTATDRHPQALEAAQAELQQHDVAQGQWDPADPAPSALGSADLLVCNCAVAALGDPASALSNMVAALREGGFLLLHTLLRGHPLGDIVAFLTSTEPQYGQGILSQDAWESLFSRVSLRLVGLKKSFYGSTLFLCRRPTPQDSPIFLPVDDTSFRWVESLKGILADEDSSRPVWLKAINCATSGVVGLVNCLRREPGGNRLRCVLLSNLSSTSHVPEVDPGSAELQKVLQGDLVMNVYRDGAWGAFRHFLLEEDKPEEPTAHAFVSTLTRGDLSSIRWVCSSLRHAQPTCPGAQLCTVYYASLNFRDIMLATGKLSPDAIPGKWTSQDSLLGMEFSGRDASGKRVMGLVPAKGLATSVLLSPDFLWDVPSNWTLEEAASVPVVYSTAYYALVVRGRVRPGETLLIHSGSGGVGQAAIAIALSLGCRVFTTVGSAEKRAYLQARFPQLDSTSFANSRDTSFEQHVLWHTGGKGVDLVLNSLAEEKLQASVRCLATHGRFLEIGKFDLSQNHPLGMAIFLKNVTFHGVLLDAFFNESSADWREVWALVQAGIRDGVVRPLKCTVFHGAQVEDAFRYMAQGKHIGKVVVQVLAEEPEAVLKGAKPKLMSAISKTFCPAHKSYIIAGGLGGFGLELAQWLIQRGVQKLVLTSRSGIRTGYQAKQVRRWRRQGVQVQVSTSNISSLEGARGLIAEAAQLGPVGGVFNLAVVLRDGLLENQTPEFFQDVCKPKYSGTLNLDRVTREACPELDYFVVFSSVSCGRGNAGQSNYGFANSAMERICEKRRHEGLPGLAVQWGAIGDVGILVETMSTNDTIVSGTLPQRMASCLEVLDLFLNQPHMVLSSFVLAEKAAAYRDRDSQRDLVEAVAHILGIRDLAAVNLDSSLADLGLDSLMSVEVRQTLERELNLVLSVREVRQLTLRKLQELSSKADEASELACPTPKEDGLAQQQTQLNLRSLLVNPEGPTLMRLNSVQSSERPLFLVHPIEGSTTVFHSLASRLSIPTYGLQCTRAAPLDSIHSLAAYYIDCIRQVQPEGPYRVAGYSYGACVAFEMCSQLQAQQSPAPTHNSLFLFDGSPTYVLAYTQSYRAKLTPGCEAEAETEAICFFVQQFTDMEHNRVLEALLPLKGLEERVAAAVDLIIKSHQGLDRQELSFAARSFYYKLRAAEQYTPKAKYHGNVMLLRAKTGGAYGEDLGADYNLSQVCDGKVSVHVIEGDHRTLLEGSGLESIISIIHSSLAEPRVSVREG
The data set can be described thus: FASN enzyme activity assay, fluorescence-based detection of CoA with CPM. It counts as biochemical. As to conditions: 5 nM FASN, 150 μM NADPH, 10 μM acetyl-CoA, 25 μM malonyl-CoA, 90 minutes incubation; read-out: IC50 data for Additional Compounds of Formulae I-V(a): Activity. The method, boiled down:
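CoA product reacted with thiol-reactive CPM (diluted to 50 μM in 70% ethanol), read at 390/530 nm after 30 min. Preceding reaction: 90 min, 5 nM recombinant GST-FASN, 150 μM NADPH, 10 μM acetyl-CoA, 25 μM malonyl-CoA, pH 7.5 HEPES, 0.5% DMSO. IC50s fitted by nonlinear sigmoidal regression.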
As to `CCONC(=O)N1CCC(Oc2ccc(-c3ccc4nccn4c3C)cc2)CC1` [Example 608, N-Ethoxy-4-[4-(5-methylimidazo[1,2-a]pyridin-6-yl)phenoxy]piperidine-1-carboxamide], the IC50 lay in the range of 100 to 999 nM.

Consider `Cc1c(-c2ccc(OC3CCN(C(=O)COC(C)C)CC3)cc2)ccc2cccnc12` [Example 624, 2-Isopropoxy-1-[4-[4-(8-methyl-7-quinolyl)phenoxy]-1-piperidyl]ethanone, HCl], for which the IC50 was 1000 to 10000 nM.

Turning to `Cc1c(-c2ccc(OC3CCN(C(=O)C(C)(C)N)CC3)cc2)ccc2cccnc12` [Example 619, 2-Amino-2-methyl-1-[4-[4-(8-methyl-7-quinolyl)phenoxy]-1-piperidyl]propan-1-one], the IC50 was in the range of 1000 to 10000 nM.

On to `Cc1c(-c2ccc(OC3CCN(C(=O)NC(C)C)CC3)cc2)ccc2nccn12` [Example 603, N-Isopropyl-4-[4-(5-methylimidazo[1,2-a]pyridin-6-yl)phenoxy]piperidine-1-carboxamide], for which the IC50 is 1000 to 10000 nM.

Regarding `Cc1c(-c2ccc(OC3CCN(C(=O)NC4CCOCC4)CC3)cc2)ccc2cccnc12` [Example 549, 4-[4-(8-Methyl-7-quinolyl)phenoxy]-N-tetrahydropyran-4-yl-piperidine-1-carboxamide, HCl], the IC50 was 1000 to 10000 nM.

With `CCONC(=O)N1CCC(Oc2ccc(-c3ccc4ccnn4c3C)cc2)CC1` [Example 538, N-Ethoxyoxy-4-[4-(7-methylpyrazolo[1,5-a]pyridin-6-yl)phenoxy]piperidine-1-carboxamide], the IC50 was 1 to 99 nM.

Still in this data set, the particulars now being: 5 nM FASN, 150 μM NADPH, 10 μM acetyl-CoA, 25 μM malonyl-CoA, 90 minutes incubation; read-out: IC50 data for Compounds of Formulae I-V/V(a): Activity.
Consider `COc1ccc(-c2ccc(OC3CCN(C(=O)C(C)C)CC3)cc2)cc1OC` [Example 492, 1-[4-(3′,4′-Dimethoxybiphenyl-4-yloxy)-piperidin-1-yl]-2-methyl-propan-1-one], for which the IC50 lay within 1000 to 10000 nM.

For the compound `Cc1cccc2ncc(-c3ccc(OC4CCN(C(=O)C5CC5)CC4)cc3)cc12` [Example 461, Cyclopropyl-{4-[4-(5-methyl-quinolin-3-yl)-phenoxy]-piperidin-1-yl}-methanone, HCl], the IC50 is 100 to 999 nM.

Take `O=C(C1CC1)N1CCC(Oc2ccc(-c3cccc(-c4ccccn4)c3F)cc2)CC1` [Example 396, Cyclopropyl-[4-(2′-fluoro-3′-pyridin-2-yl-biphenyl-4-yloxy)-piperidin-1-yl]-methanone]: the IC50 lay in the range of 1000 to 10000 nM.

Regarding `CCC(=O)N1CCC(Oc2ccc(-c3cc4ncccc4cc3C)cc2)CC1` [Example 276, 1-{4-[4-(6-Methylquinolin-7-yl)-phenoxy]-piperidin-1-yl}-propan-1-one], the IC50 lay within 1000 to 10000 nM.

For the compound `CO[C@@H](C)C(=O)N1CCC(Oc2ccc(-c3cnc4ccccc4c3)cc2)CC1` [Example 109, (S)-2-Methoxy-1-[4-(4-quinolin-3-yl-phenoxy)-piperidin-1-yl]-propan-1-one, 2HCl], the IC50 fell in the range of 1000 to 10000 nM.

`Cc1ccc(C)c(C(=O)N2CCC(Oc3ccc(-c4cnc5ccccc5c4)cc3)CC2)c1` [Example 128, (2,5-Dimethylphenyl)-[4-(4-quinolin-3-yl-phenoxy)-piperidin-1-yl]-methanone, HCl]: the IC50 is 1000 to 10000 nM.

`CCC(=O)N1CCC(Oc2ccc(-c3cnc4c(c3)CCCC4)cc2)CC1` [Example 21, 1-{4-[4-(5,6,7,8-Tetrahydroquinolin-3-yl)-phenoxy]-piperidin-1-yl}-propan-1-one]: the IC50 was in the range of 1000 to 10000 nM.

Regarding `O=C(c1ncco1)N1CCC(Oc2ccc(-c3cnc4ccccc4c3)cc2)CC1` [Example 123, Oxazol-2-yl-[4-(4-quinolin-3-yl-phenoxy)-piperidin-1-yl]-methanone; HCl], the IC50 is 1000 to 10000 nM.

`CCOc1c(-c2ccc(OC3CCN(C(=O)CC)CC3)cc2)ccc2cccnc12` [Example 167, 1-{4-[4-(8-Ethoxyquinolin-7-yl)-phenoxy]-piperidin-1-yl}-propan-1-one, HCl]: the IC50 was in the range of 1 to 99 nM.

For `Cc1c(-c2ccc(OC3CCN(C(=O)[C@H]4CCCO4)CC3)c(F)c2)ccc2cccnc12` [Example 226, {4-[2-Fluoro-4-(8-methylquinolin-7-yl)-phenoxy]-piperidin-1-yl}-(R)-tetrahydrofuran-2-yl-methanone], the IC50 lay in the range of 1 to 99 nM.

As to `Cc1nccc2cc(-c3ccc(OC4CCN(C(=O)C5CC5)CC4)cc3)ccc12` [Example 481, Cyclopropyl-{4-[4-(1-methylisoquinolin-6-yl)-phenoxy]-piperidin-1-yl}-methanone], the IC50 fell in the range of 1 to 99 nM.

As for `CCC(=O)N1CCC(Oc2ccc(-c3ccc4ccc(C)nc4c3)cc2)CC1` [Example 253, 1-{4-[4-(2-Methylquinolin-7-yl)-phenoxy]-piperidin-1-yl}-propan-1-one, TFA salt], the IC50 was 1000 to 10000 nM.

As to `O=C(C1CC1)N1CCC(Oc2ccc(-c3cnc4cccc(F)c4c3)cc2)CC1` [Example 30], the IC50 was in the range of 1 to 99 nM.

On to `CCC(=O)N1CCC(Oc2ccc(-c3ccc4cccnc4c3NCCOC)cc2)CC1` [Example 328, 1-(4-{4-[8-(2-Methoxyethylamino)-quinolin-7-yl]-phenoxy}-piperidin-1-yl)-propan-1-one], for which the IC50 lay in the range of 100 to 999 nM.

In the case of `O=C(C1CC1)N1CCC(Oc2ccc(-c3ccc4c(Cl)ccnc4c3)cc2)CC1` [Example 258, {4-[4-(4-Chloroquinolin-7-yl)-phenoxy]-piperidin-1-yl}-cyclopropyl-methanone, TFA salt], the IC50 was in the range of 100 to 999 nM.

Take `CC(C)C(=O)N1CCC(Oc2ccc(-c3ccc4cccnc4c3)cn2)CC1` [Example 136, 2-Methyl-1-[4-(5-quinolin-7-yl-pyridin-2-yloxy)-piperidin-1-yl]-propan-1-one, HCl]: the IC50 is 1000 to 10000 nM.

In the case of `O=C(c1ccsn1)N1CCC(Oc2ccc(-c3cnc4ccccc4c3)cc2)CC1` [Example 125, Isothiazol-3-yl-[4-(4-quinolin-3-yl-phenoxy)-piperidin-1-yl]-methanone, HCl], the IC50 was in the range of 1000 to 10000 nM.

Take `Cc1c(-c2ccc(O[C@H]3C[C@H]4CC[C@@H](C3)N4C(=O)[C@H]3CCCO3)cc2)ccc2cccnc12` [Example 371, {endo-3-[4-(8-Methylquinolin-7-yl)-phenoxy]-8-aza-bicyclo[3.2.1]oct-8-yl}-(R)-tetrahydrofuran-2-yl-methanone, HCl]: the IC50 fell in the range of 1 to 99 nM.

As to `O=C(C1CCC1)N1CCC(Oc2ccc(-c3cncc(-c4ccccc4)c3)cc2)CC1` [Example 385, Cyclobutyl-{4-[4-(5-phenylpyridin-3-yl)-phenoxy]-piperidin-1-yl}-methanone, TFA salt], the IC50 lay in the range of 1000 to 10000 nM.

For the compound `Cc1c(-c2ccc(O[C@@H]3C[C@H]4CC[C@@H](C3)N4C(=O)[C@H]3CCCO3)cc2)ccc2cccnc12` [Example 360, {exo-3-[4-(8-Methylquinolin-7-yl)-phenoxy]-8-aza-bicyclo[3.2.1]oct-8-yl}-(R)-tetrahydrofuran-2-yl-methanone, HCl], the IC50 was in the range of 100 to 999 nM.

As for `O=C(C1CC1)N1CCC(Oc2ccc(-c3ccc4c(c3)OCCO4)cc2)CC1` [Example 503, Cyclopropyl-{4-[4-(2,3-dihydro-1,4-benzodioxin-6-yl)-phenoxy]-piperidin-1-yl}-methanone], the IC50 fell in the range of 1000 to 10000 nM.

With `CCC(=O)N1CCC(Oc2ccc(-c3cnc4cc(F)ccc4c3)cc2)CC1` [Example 478, 1-{4-[4-(7-Fluoroquinolin-3-yl)-phenoxy]-piperidin-1-yl}-propan-1-one], the IC50 was in the range of 1 to 99 nM.

As for `COc1cc(OC2CCN(C(=O)C3CC3)CC2)ccc1-c1cnc2ccccc2c1` [Example 211, Cyclopropyl-[4-(3-methoxy-4-quinolin-3-yl-phenoxy)-piperidin-1-yl]-methanone], the IC50 lay within 1000 to 10000 nM.

As for `CCc1cc2cc(-c3ccc(OC4CCN(C(=O)[C@H]5CCCO5)CC4)cc3)ccc2cn1` [Example 476, {4-[4-(3-Ethylisoquinolin-6-yl)-phenoxy]-piperidin-1-yl}-(R)-tetrahydro-furan-2-yl-methanone], the IC50 was 1 to 99 nM.

Turning to `CCC(=O)N1CCC(Oc2ccc(-c3ccc4nnc(C(F)(F)F)n4c3)cc2)CC1` [Example 159, 1-{4-[4-(3-Trifluoromethyl-1,2,4-triazolo[4,3-a]pyridin-6-yl)-phenoxy]-piperidin-1-yl}-propan-1-one, HCl], the IC50 lay in the range of 1000 to 10000 nM.

System in a further data set: not given
Experiment: not given
Details: not given
Turning to `O=C(C1CC1)N1CCC(Oc2ccc(-c3cnc4ccccc4c3)cc2)CC1` (as salt: HCl) [Example 100, Cyclopropyl-[4-(4-quinolin-3-yl-phenoxy)-piperidin-1-yl]-methanone,HCl], the melting point fell in the range of 170 to 173 °C.

`CC(C)C(=O)N1CCC(Oc2ccc(-c3cnc4ccccc4c3)nc2)CC1` (as salt: HCl) [Example 141, 2-Methyl-1-[4-(6-quinolin-3-yl-pyridin-3-yloxy)-piperidin-1-yl]-propan-1-one, 2HCl] had a melting point of 99 to 102 °C.

For the compound `CC(C)C(=O)N1CCC(Oc2ccc(-c3ccc4cnccc4c3)nc2)CC1` (as salt: HCl) [Example 148, 1-[4-(6-Isoquinolin-6-yl-pyridin-3-yloxy)-piperidin-1-yl]-2-methyl-propan-1-one, 2HCl], the melting point lay in the range of 236 to 241 °C.

For `CC(C)C(=O)N1CCC(Oc2ccc(-c3ccc4cccnc4c3)nc2)CC1` (as salt: HCl) [Example 145, 2-Methyl-1-[4-(6-quinolin-7-yl-pyridin-3-yloxy)-piperidin-1-yl]-propan-1-one, 2HCl], the melting point was 170 to 179 °C.

In the case of `O=C(C1CC1)N1CCC(Oc2ccc(-c3ccc4cnccc4c3)nc2)CC1` (as salt: HCl) [Example 149, Cyclopropyl-[4-(6-isoquinolin-6-yl-pyridin-3-yloxy)-piperidin-1-yl]-methanone, 2HCl], the melting point is 136 to 146 °C.
